Tests used:
[1] = Kinetic dissolution of tablet in phosphate buffer pH 4.5; assay type: physicochemical; conditions: for Average Conc.: tablet dissolution
Description: Kinetic Dissolution Experimental Conditions for Tablet Dissolution Dissolution Medium: […] Temperature: 37±0.5° C. Volume: 80 mL Time: 2 hrs Sample: Tablet (weight 200 mg) Stirring: Paddle 100 rpm Sampling time: 5 min, 15 min, 25 min, 35 min, 45 min, 60 min and 120 min. Repetitions: 2 for each experiment At the time fixed, withdraw 3 mL from each vessel. Reinstate the withdrawn volume. Filter each solution with 0.20 μm filter, discarding the first 1 mL. […] Each withdrawal was analyzed without further dilution. The sample was analyzed using the chromatographic conditions reported herein.

[2] = Thermodynamic solubility test in buffer solution (HPLC); assay type: physicochemical; conditions: buffer pH 4.5, 37° C., 24 hours
Description: The solubility tests were performed in a buffer solution at ph 4.5 and compared with the solubility data of dabigatran etexilate mesylate (commercial form).
Thermodynamic Solubility Tests
The sample (approx. 50 mg) was weighted in a vial and left under magnetic stirring (approx. 300 rpm) in approx. 2 mL of buffer solution at 37° C. for 24 hours. The experiments were carried out at pH 4.5 and pH 6.8. The suspensions were filtered with 0.45 μm filter and analyzed by HPLC method previously reported. From the obtained area an opportune dilution of the sample was performed to obtain a value consistent with the Calibration Curve. Every diluted sample was analyzed by HPLC and the results were interpolated by the calibration curve.
Each experiment was replicated twice.

Compound	Average Conc. ([1]; pH 4.5, time 5 min)	Average Conc. ([1]; pH 4.5, time 15 min)	Average Conc. ([1]; pH 4.5, time 25 min)	Average Conc. ([1]; pH 4.5, time 35 min)	Average Conc. ([1]; pH 4.5, time 45 min)	Average Conc. ([1]; pH 4.5, time 60 min)	Average Conc. ([1]; pH 4.5, time 120 min)	Average Conc. [2] [µg/mL]	dissolution rate compared with the mesylate salt (in words) ([1]; kinetic dissolution, phosphate buffer pH 4.5, 37° C.)	dissolution rate, times higher than the mesylate derivative ([1]; tablet, phosphate buffer pH 4.5, 37° C., paddle 100 rpm, compared with mesylate)
CCCCCCOC(=O)NC(=N)c1ccc(NCc2nc3cc(C(=O)N(CCC(=O)OCC)c4ccccn4)ccc3n2C)cc1.CS(=O)(=O)O [Dabigatran/mesylate 1/1]	6.86	9.09	11.40	13.28	15.96	18.55	26.44			
CCCCCCOC(=O)N=C(N)c1ccc(NCc2nc3cc(C(=O)N(CCC(=O)OCC)c4ccccn4)ccc3n2C)cc1.O=C(O)c1cc(O)c(O)c(O)c1 [Dabigatran/gallate 1/1]	10.01	28.10	44.94	62.45	75.18	90.21	106.50			
Gallate								0.40		
Dabigatran Etexilate Orotate Anhydrous Form a (Dabigatran/Orotic Acid 1/1 Mol/Mole)									comparable	more than 8.7 times
CCCCCCOC(=O)N=C(N)c1ccc(NCc2nc3cc(C(=O)N(CCC(=O)OCC)c4ccccn4)ccc3n2C)cc1.O=C(O)c1cc(=O)[nH]c(=O)[nH]1 [Dabigatran/orotate 1/1]	8.76	11.06	12.26	13.74	15.52	17.21	28.89			
